Measurements as given in article PMC10916352, “Safety Evaluation of a Prototypical Diazirine-Based Covalent Crosslinker and Molecular Adhesive” (International Journal of Toxicology, 2023).
Where “and” joins values, the source holds several entries; their conditions need not be identical. Identical values can stand only once.

How the values were obtained:
[1] = tested on: Salmonella typhimurium TA98; assay: Bacterial reverse mutation test (Ames), strain TA98; type: cell-based; conditions: for Revertant Colonies (With S9), plates A, B, C / Revertant Colonies (Without S9), plates A, B, C: individual plates
Description: The reverse mutation test was performed to determine the potential of BondLynx and/or its metabolites to induce reverse mutations at the histidine locus of Salmonella typhimurium.[26],[27] The test employs strains of Salmonella typhimurium carrying mutations in the genes involved in histidine production, such that they are only able to grow in histidine supplemented culture media. Upon exposure to mutagenic materials, these mutations may be reversed, thereby restoring the ability to grow in histidine-free media. When grown in the presence of the test compound on media with a small amount of histidine, tester strains grow briefly to allow the opportunity for mutation, followed by proliferation of revertant colonies upon depletion of the provided histidine. Thus, the number of revertant colonies following incubation is indicative of the ability of the test compound to induce mutations.
Tests were performed on two strains of the bacteria (TA98 and TA100) in the absence and presence of an exogenous mammalian metabolic activation system (5% v/v S9). Positive controls and BondLynx were suspended in dimethyl sulfoxide (DMSO) for testing, and DMSO served as the vehicle control. Positive controls consisted of 2-nitrofluorene (10 μg/plate) for the TA98 strain without S9, methyl mesylate (650 μg/plate) for the TA100 strain without S9, and 2-aminoanthracene for both strains with S9 (1 μg/plate for TA98 and 5 μg/plate for TA100). Eight concentrations of BondLynx (1.7, 5.4, 17, 52, 164, 512, 1600 and 5000 μg/plate) were tested in triplicate. The vehicle control was tested in triplicate and the positive controls were tested singular.
Test solutions were prepared by pre-incubating .1 mL fresh bacterial culture (10^9 cells/mL), .1 mL of a BondLynx dilution or control solution, and .5 mL of S9 mix or .1 M phosphate buffer for 30 min before adding to 3 mL of molten (45 ± 2°C) top agar. After mixing in a vortex, agar solutions were poured onto selective agar plates. Upon solidification, the prepared plates were inverted and incubated at 37.0 ± 1.0°C for 48 ± 4 h. Following incubation, revertant colonies were counted with a Sorcerer Colony Counter. The condition of the bacterial background lawn was evaluated macroscopically and/or microscopically using a dissecting microscope when considered necessary.

[2] = 3T3 Neutral Red uptake cytotoxicity and phototoxicity assay; conditions: mouse, Balb/c 3T3 fibroblasts (clone 31); for viability: Viability of cells over all tested concentrations, .316 to 1000 μg/mL
Description: (§1) The 3T3 Neutral Red uptake assay was used to evaluate the phototoxicity of BondLynx. The NRU assay makes use of Neutral Red dye, a weak cationic dye that penetrates the cell membrane by non-ionic passive diffusion and accumulates in lysosomes. Cytotoxicity of the test material is evaluated by measuring the OD540 to assess the uptake of Neutral Red dye.[28],[29] […] By measuring cytotoxicity in the absence vs presence of UV and visible light, the phototoxicity of the test material can be determined.[30],[31]
(§2) Cells were routinely trypsinized and passaged, at least once weekly, with a split ratio 1:3 to 1:4 to achieve a near confluent culture.
(§3) Stock solutions of both controls were freshly prepared on the day of testing. The vehicle control was 1% DMSO in EBSS for the positive control, EBSS for the negative control, and .5% ethanol in EBSS for BondLynx. BondLynx was dissolved in ethanol for testing. […] All controls and BondLynx were handled in the dark and tested in 8-fold.
(§4) In preparation for testing, cultures of 3T3 fibroblasts were trypsinized and resuspended in culture medium. […] A total of six plates were prepared in this manner – two each for the positive control, the negative control, and BondLynx. Following incubation, the cell culture medium was removed, and the wells washed with DPBS (Dulbecco’s phosphate-buffered saline). A 200 μL aliquot of each dilution of the test compound (BondLynx or a control) was added the first eight columns, and the appropriate vehicle control was added to the last four columns. All plates were incubated an additional 60 min before irradiating one plate for each test compound (+Irr) in a solar simulator with a WG320 nm filter for 22 min (equivalent to 5 J/cm^2 UV-A), while the second plate for each test compound (–Irr) was kept in the dark at room temperature. Subsequently, the test solutions were removed from the plates, and the cells were washed once with DPBS and suspended in 200 μL of supplemented DMEM to incubate for an additional 20-24 h.
(§5) Immediately following incubation, the confluency of each plate was visually assessed, and the culture medium was replaced with 100 μL of Neutral Red dye (50 μg/mL). The plates were incubated another 3.5 h before removing the dye, washing with 150 μL of DPBS, and shaking for 20-40 min in 150 μL Neutral Red destain solution (ethanol:acetic acid:distilled water, 50:1:49). The optical density at 540 nm was measured for each well and corrected by subtracting the appropriate blank.

[3] = tested on: Balb/c 3T3 fibroblasts (clone 31); assay: as above; conditions: for Corrected Mean OD540: 8 wells
Description: as §1, §2, §3, §4, §5

[4] = TA98, without S9, 1600 μg/plate
[5] = TA98, without S9, 5000 μg/plate

Structure (SMILES): FC(F)(F)C1(c2ccc(C(c3ccc(C4(C(F)(F)F)N=N4)cc3)(C(F)(F)F)C(F)(F)F)cc2)N=N1 [BondLynx, 2,2-bis-[4-[3-(trifluoromethyl)-3H-diazirin-3-yl]phenyl]hexafluoropropane]
- Mutagenicity conclusion ([1]; TA98, absence and presence of S9, 1.7 to 5000 μg/plate): non-mutagenic
- Total number of revertants relative to concurrent vehicle control ([1]; TA98, vs DMSO vehicle control): less than three times
- Revertant Colonies (With S9), Mean ± SD ([1]; TA98, with S9, 1.7 μg/plate): 20 ± 9
- Revertant Colonies (With S9), plates A, B, C ([1]; TA98, with S9, 1.7 μg/plate): 10 and 23 and 26
- Revertant Colonies (With S9), Mean ± SD ([1]; TA98, with S9, 5.4 μg/plate): 13 ± 8
- Revertant Colonies (With S9), plates A, B, C ([1]; TA98, with S9, 5.4 μg/plate): 4 and 15 and 19
- Revertant Colonies (With S9), Mean ± SD ([1]; TA98, with S9, 1600 μg/plate): 17 ± 8
- Revertant Colonies (With S9), plates A, B, C ([1]; TA98, with S9, 1600 μg/plate): 26 and 16 and 10
- Revertant Colonies (With S9), Mean ± SD ([1]; TA98, with S9, 5000 μg/plate): 13 ± 5
- Revertant Colonies (With S9), plates A, B, C ([1]; TA98, with S9, 5000 μg/plate): 8 and 16 (2×)
- Revertant Colonies (Without S9), Mean ± SD ([1]; TA98, without S9, 1.7 μg/plate): 9 ± 2
- Revertant Colonies (Without S9), plates A, B, C ([1]; TA98, without S9, 1.7 μg/plate): 8 and 11 and 7
- Revertant Colonies (Without S9), Mean ± SD ([1]; TA98, without S9, 5.4 μg/plate): 8 ± 4
- Revertant Colonies (Without S9), plates A, B, C ([1]; TA98, without S9, 5.4 μg/plate): 4 and 12 and 8
- Revertant Colonies (Without S9), Mean ± SD ([1]; TA98, without S9, 17 μg/plate): 13 ± 4
- Revertant Colonies (Without S9), plates A, B, C ([1]; TA98, without S9, 17 μg/plate): 15 and 11 and 12
- Revertant Colonies (Without S9), Mean ± SD [1, 4]: 9 ± 5
- Revertant Colonies (Without S9), plates A, B, C [1, 4]: 7 and 15 and 5
- Revertant Colonies (Without S9), Mean ± SD [1, 5]: 14 ± 3
- Revertant Colonies (Without S9), plates A, B, C [1, 5]: 18 and 12 (2×)
- Cytotoxicity (condition of microcolony lawn) ([1]; absence of S9, higher concentrations): slight thinning of the microcolony lawn
- Cytotoxicity (condition of microcolony lawn) ([1]; presence of S9, any tested dose level): toxicity was not observed
- viability at 82 min, 0.316 μg/mL ([2]; Viability (%), +Irr): 101%
- viability at 82 min, 1 μg/mL ([2]; Viability (%), +Irr): 99.6%
- viability at 82 min, 3.16 μg/mL ([2]; Viability (%), +Irr): 101%
- viability at 82 min, 10 μg/mL ([2]; Viability (%), +Irr): 103%
- viability at 82 min, 31.6 μg/mL ([2]; Viability (%), +Irr): 106%
- viability at 100 μg/mL ([2]; Viability (%), +Irr, 100 μg/mL): 110%
- viability at 82 min, 316 μg/mL ([2]; Viability (%), +Irr): 111%
- viability at 82 min, 1000 μg/mL ([2]; Viability (%), +Irr): 105%
- viability at 82 min, 0.316 μg/mL ([2]; Viability (%), –Irr): 102%
- viability at 82 min, 1 μg/mL ([2]; Viability (%), –Irr): 101%
- viability at 82 min, 3.16 μg/mL ([2]; Viability (%), –Irr): 100%
- viability at 82 min, 10 μg/mL ([2]; Viability (%), –Irr): 97.4%
- viability at 82 min, 31.6 μg/mL ([2]; Viability (%), –Irr): 98.3%
- viability at 82 min, 100 μg/mL ([2]; Viability (%), –Irr, 100 μg/mL): 100%
- viability at 82 min, 316 μg/mL ([2]; Viability (%), –Irr): 101%
- viability at 82 min, 1000 μg/mL ([2]; Viability (%), –Irr): 93%
- viability ([2]; Irr+): 105 ± 4%
- viability ([2]; Irr−): 99 ± 3%
- Phototoxicity classification ([3]; 3T3 NRU phototoxicity test): non-phototoxic
- Corrected Mean OD540 ([3]; +Irr, 0.316 μg/mL): 1.135
- Corrected Mean OD540 ([3]; +Irr, 1 μg/mL): 1.116
- Corrected Mean OD540 ([3]; +Irr, 3.16 μg/mL): 1.13
- Corrected Mean OD540 ([3]; +Irr, 10 μg/mL): 1.149
- Corrected Mean OD540 ([3]; +Irr, 31.6 μg/mL): 1.19
- Corrected Mean OD540 ([3]; +Irr, 100 μg/mL): 1.236
- Corrected Mean OD540 ([3]; +Irr, 316 μg/mL): 1.24
- Corrected Mean OD540 ([3]; +Irr, 1000 μg/mL): 1.18
- IC50 (50% inhibition of Neutral Red uptake), presence of irradiation ([3]; +Irr, 5 J/cm^2 UV-A): no IC50
- Photo Irritation Factor (PIF) ([3]; non-irradiated IC50 divided by irradiated IC50): no PIF could be calculated
- Cytotoxicity ([3]; presence and absence of UV-A, .316 to 1000 μg/mL): no cytotoxicity
- IC50 (50% inhibition of Neutral Red uptake), absence of irradiation ([3]; –Irr): no IC50
- Corrected Mean OD540 ([3]; –Irr, 0.316 μg/mL): 1.17
- Corrected Mean OD540 ([3]; –Irr, 1 μg/mL): 1.16
- Corrected Mean OD540 ([3]; –Irr, 3.16 μg/mL): 1.15
- Corrected Mean OD540 ([3]; –Irr, 10 μg/mL): 1.12
- Corrected Mean OD540 ([3]; –Irr, 31.6 μg/mL): 1.13
- Corrected Mean OD540 ([3]; –Irr, 100 μg/mL): 1.15
- Corrected Mean OD540 ([3]; –Irr, 316 μg/mL): 1.16
- Corrected Mean OD540 ([3]; –Irr, 1000 μg/mL): 1.07
